Key:
A-427 = assay: NSCLC Cell Viability Assay; assay type: cell-based; conditions: Homo sapiens; A-427, KRAS G12D; single agent
Description: (§1) Cell proliferation was measured using CellTiter-Glo luciferase-based ATP detection assay (Promega) following the manufactures's protocol. IC50 determinations were performed using GraphPad Prism software (GraphPad, Inc., San Diego, CA).

A549 = assay: NSCLC Cell Viability Assay; assay type: cell-based; conditions: Homo sapiens; A549, KRAS G12S; single agent
Description: as §1

COR-L23 = assay: NSCLC Cell Viability Assay; assay type: cell-based; conditions: Homo sapiens; COR-L23, KRAS G12V; single agent
Description: as §1

Calu-1 = assay: NSCLC Cell Viability Assay; assay type: cell-based; conditions: Homo sapiens; Calu-1, KRAS G12C; single agent
Description: as §1

Calu-6 = assay: NSCLC Cell Viability Assay; assay type: cell-based; conditions: Homo sapiens; Calu-6, KRAS Q61K; single agent
Description: as §1

DV-90 = assay: NSCLC Cell Viability Assay; assay type: cell-based; conditions: Homo sapiens; DV-90, KRAS G13D; single agent
Description: as §1

HCC1588 = assay: NSCLC Cell Viability Assay; assay type: cell-based; conditions: Homo sapiens; HCC1588, KRAS G12D; single agent
Description: as §1

LCLC-97TM1 = assay: NSCLC Cell Viability Assay; assay type: cell-based; conditions: Homo sapiens; LCLC-97TM1, KRAS G12V; single agent
Description: as §1

LU2512 = assay: NSCLC Cell Viability Assay; assay type: cell-based; conditions: Homo sapiens; LU2512, KRAS G12C; single agent
Description: as §1

NCI-H1373 = assay: NSCLC Cell Viability Assay; assay type: cell-based; conditions: Homo sapiens; NCI-H1373, KRAS G12C; single agent
Description: as §1

NCI-H1792 = assay: NSCLC Cell Viability Assay; assay type: cell-based; conditions: Homo sapiens; NCI-H1792, KRAS G12C; single agent
Description: as §1

NCI-H1944 = assay: NSCLC Cell Viability Assay; assay type: cell-based; conditions: Homo sapiens; NCI-H1944, KRAS G13D; single agent
Description: as §1

NCI-H2009 = assay: NSCLC Cell Viability Assay; assay type: cell-based; conditions: Homo sapiens; NCI-H2009, KRAS G12A; single agent
Description: as §1

NCI-H2122 = assay: NSCLC Cell Viability Assay; assay type: cell-based; conditions: Homo sapiens; NCI-H2122, KRAS G12C; single agent
Description: as §1

NCI-H23 = assay: NSCLC Cell Viability Assay; assay type: cell-based; conditions: Homo sapiens; NCI-H23, KRAS G12C; single agent
Description: as §1

NCI-H441 = assay: NSCLC Cell Viability Assay; assay type: cell-based; conditions: Homo sapiens; NCI-H441, KRAS G12V; single agent
Description: as §1

NCI-H460 = assay: NSCLC Cell Viability Assay; assay type: cell-based; conditions: Homo sapiens; NCI-H460, KRAS Q61H; single agent
Description: as §1

NCI-H727 = assay: NSCLC Cell Viability Assay; assay type: cell-based; conditions: Homo sapiens; NCI-H727, KRAS G12V; single agent
Description: as §1

SK-LU-1 = assay: NSCLC Cell Viability Assay; assay type: cell-based; conditions: Homo sapiens; SK-LU-1, KRAS G12D; single agent
Description: as §1

SW1573 = assay: NSCLC Cell Viability Assay; assay type: cell-based; conditions: Homo sapiens; SW1573, KRAS G12C; single agent
Description: as §1

SW900 = assay: NSCLC Cell Viability Assay; assay type: cell-based; conditions: Homo sapiens; SW900, KRAS G12V; single agent
Description: as §1

ASPC-1 = assay: Pancreatic Cancer Cell Viability Assay; assay type: cell-based; conditions: Homo sapiens, ASPC1; ASPC-1, KRAS G12D; single agent
Description: (§2) Cell proliferation was measured using CellTiter-Glo luciferase-based ATP detection assay (Promega) following the manufacturer's protocol. IC50 determinations were performed using GraphPad Prism software (GraphPad, Inc., San Diego, CA).

Capan-1 = assay: Pancreatic Cancer Cell Viability Assay; assay type: cell-based; conditions: Homo sapiens; Capan-1, KRAS G12V; single agent
Description: as §2

Capan-2 = assay: Pancreatic Cancer Cell Viability Assay; assay type: cell-based; conditions: Homo sapiens; Capan-2, KRAS G12V; single agent
Description: as §2

HPAC = assay: Pancreatic Cancer Cell Viability Assay; assay type: cell-based; conditions: Homo sapiens, KRAS G12D, single agent
Description: as §2

HPAF-II = assay: Pancreatic Cancer Cell Viability Assay; assay type: cell-based; conditions: Homo sapiens, KRAS G12D, single agent
Description: as §2

HS766T = assay: Pancreatic Cancer Cell Viability Assay; assay type: cell-based; conditions: Homo sapiens, KRAS Q61H, single agent
Description: as §2

MIAPACA-2 = assay: Pancreatic Cancer Cell Viability Assay; assay type: cell-based; conditions: Homo sapiens, MIA PaCa-2; MIAPACA-2, KRAS G12C; single agent
Description: as §2

Panc 03.27 = assay: Pancreatic Cancer Cell Viability Assay; assay type: cell-based; conditions: Homo sapiens, PANC-03-27; Panc 03.27, KRAS G12V; single agent
Description: as §2

Panc 05.04 = assay: Pancreatic Cancer Cell Viability Assay; assay type: cell-based; conditions: Homo sapiens; Panc 05.04, KRAS G12D; single agent
Description: as §2

Panc 10.05 = assay: Pancreatic Cancer Cell Viability Assay; assay type: cell-based; conditions: Homo sapiens, Panc1005; Panc 10.05, KRAS G12D; single agent
Description: as §2

NCI-H2122 cells = assay: Caspase-Glo 3/7 apoptosis assay; assay type: cell-based, human; conditions: NCI-H2122 KRAS G12C; single agent; 48 hours; Compound 1 1 μM, trametinib 50 nM
Description: Two thousand cells per well were seeded in 384 well white plate, and then treated with compounds for 24 or 48 hours (37° C., 5% CO2). Cell caspase-3/7 activity, a major hallmark of apoptosis, was measured using Caspase-Glo® 3/7 detection assay (Promega) following the manufactures's protocol.

IC50 (A549) [nM]	IC50 (Calu-1) [nM]	IC50 (Calu-6) [nM]	IC50 (HCC1588) [nM]	IC50 (NCI-H1373) [µM]	IC50 (NCI-H1792) [nM]	IC50 (NCI-H1944) [nM]	IC50 (NCI-H2009) [nM]	IC50 (NCI-H2122) [nM]	IC50 (NCI-H23) [nM]	IC50 (NCI-H441) [µM]	IC50 (NCI-H460) [nM]	IC50 (NCI-H727) [nM]	IC50 (SK-LU-1) [nM]	IC50 (SW1573) [nM]	Structure (SMILES)	IC50 (A-427) [nM]	IC50 (COR-L23) [nM]	IC50 (DV-90) [µM]	IC50 (LCLC-97TM1) [nM]	IC50 (LU2512) [nM]	further results
55	> 10000	12	> 10000	> 10	51	> 10000	> 10000	10	63	> 10	70	3	> 10000	> 10000	CC(=O)Nc1cccc(-n2c(=O)n(C3CC3)c(=O)c3c(Nc4ccc(I)cc4F)n(C)c(=O)c(C)c32)c1 [Trametinib, N-(3-{3-cyclopropyl-5-[(2-fluoro-4-iodophenyl)amino]-6,8-dimethyl-2,4,7-trioxo-3,4,6,7-tetrahydropyrido[4,3-d]pyrimidin-1(2H)-yl}phenyl)acetamide]	60	164	0.014	344	2530	IC50 (SW900): 74 nM; IC50 (ASPC-1): 0.05 µM; IC50 (Capan-1): 30 nM; IC50 (Capan-2): 80 nM; IC50 (HPAC): 30 nM; IC50 (HPAF-II): 40 nM; IC50 (HS766T): 10 nM; IC50 (MIAPACA-2): 20 nM; IC50 (Panc 03.27): 1480 nM; IC50 (Panc 05.04): 20 nM; IC50 (Panc 10.05): 300 nM; caspase-3/7 activity (NCI-H2122 cells): increased
1360	2300	1470	820	4.2	1320	2620	2280	1160	3420	5.21	1220	4530	950	2590	C[C@H]1CNC(=O)c2cnn3ccc(nc23)N[C@H](C)c2cc(F)ccc2O1 [Compound 1, (7S,13R)-11-fluoro-7,13-dimethyl-6,7,13,14-tetrahydro-1,15-ethenopyrazolo[4,3-f][1,4,8,10]benzoxatriazacyclotridecin-4(5H)-one]	830	2200	7.27	930	2500	IC50 (SW900): 2080 nM; IC50 (ASPC-1): 8.23 µM; IC50 (Capan-1): 1040 nM; IC50 (Capan-2): 690 nM; IC50 (HPAC): 1060 nM; IC50 (HPAF-II): 3530 nM; IC50 (HS766T): 2490 nM; IC50 (MIAPACA-2): 1130 nM; IC50 (Panc 03.27): 1180 nM; IC50 (Panc 05.04): 1020 nM; IC50 (Panc 10.05): 2770 nM; caspase-3/7 activity (NCI-H2122 cells): modest increases
